Reference: patent US10793568B2, “Hormone receptor modulators for treating metabolic conditions and disorders” (ARDELYX, INC., priority 2016, dated 2020)

Tests used:
[1] = target: human Farnesoid X receptor ligand-binding domain/Gal4 DNA binding domain chimera (Homo sapiens (Human), UniProt Q96RI1); assay: Cell-based assay of FXR activation (FXR-UAS-bla HEK 293T beta-lactamase reporter); conditions: cellular FXR beta-lactamase reporter assay; for Emax: HEK-293T, extent of activation relative to GW4064, read-out: % Efficacy; for EC50: FXR-UAS-bla HEK 293T cells, 16 h, pEC50 = -log EC50
Chain of human Farnesoid X receptor ligand-binding domain/Gal4 DNA binding domain chimera (Q96RI1 262-486, change not shown): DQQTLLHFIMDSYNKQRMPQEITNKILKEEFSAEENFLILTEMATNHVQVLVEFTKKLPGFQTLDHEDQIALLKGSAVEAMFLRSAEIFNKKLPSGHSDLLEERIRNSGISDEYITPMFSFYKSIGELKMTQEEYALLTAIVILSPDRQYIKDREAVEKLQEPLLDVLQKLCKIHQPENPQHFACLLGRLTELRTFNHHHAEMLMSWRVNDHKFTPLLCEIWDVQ
Chain of human Farnesoid X receptor ligand-binding domain/Gal4 DNA binding domain chimera (P04386 1-147 partner): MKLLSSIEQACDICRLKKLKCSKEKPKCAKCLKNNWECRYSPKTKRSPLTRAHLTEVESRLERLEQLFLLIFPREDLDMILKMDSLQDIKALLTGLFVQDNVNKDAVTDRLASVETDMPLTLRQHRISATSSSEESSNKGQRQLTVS
Summary of the method: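 HEK 293T cells stably expressing a Gal4-fused human FXR LBD and a UAS-driven beta-lactamase reporter were incubated with serially diluted compounds for 16 h at 37 °C in phenol red-free DMEM with 2% charcoal-stripped FBS. CCF4 FRET read-out: excitation 409 nm, emission 447 nm. pEC50 comes from a 3-parameter logistic fit, and efficacy is given as % of GW4064.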

[2] = target: ligand binding domain of human FXR (Homo sapiens (Human), UniProt Q96RI1); assay: FXR ligand binding assay (LanthaScreen TR-FRET, SRC2-2 peptide recruitment); conditions: for pEC50: -log EC50, concentration required to produce 50% activation; for Emax: extent of activation relative to GW4064, read-out: % Efficacy
Chain of ligand binding domain of human FXR (Q96RI1 262-486): as the sequence (Q96RI1 262-486, change not shown) above

Structure (SMILES) | Emax [1] [%] | EC50 [1] [nM] | pEC50 [2] | Emax [2] [%]
Cc1cccc(Cl)c1-c1noc(C2CC2)c1CO[C@@H]1C[C@@H]2C[C@H]1CN2c1nc2c([C@H]3CCOC3)cc(C(=O)O)cc2s1 [Compound I-272, 2-((1S,4S,5R)-5-((3-(2-chloro-6-methylphenyl)-5-cyclopropylisoxazol-4-yl)methoxy)-2-azabicyclo[2.2.1]heptan-2-yl)-4-((R)-tetrahydrofuran-3-yl)benzo[d]thiazole-6-carboxylic Acid] | 105 | 0.501 | 8.4 | 132
Cc1cccc(Cl)c1-c1noc(C2CC2)c1CO[C@@H]1C[C@@H]2C[C@H]1CN2c1nc2c([C@@H]3CCOC3)cc(C(=O)O)cc2s1 [Compound I-273, 2-((1S,4S,5R)-5-((3-(2-chloro-6-methylphenyl)-5-cyclopropylisoxazol-4-yl)methoxy)-2-azabicyclo[2.2.1]heptan-2-yl)-4-((S)-tetrahydrofuran-3-yl)benzo[d]thiazole-6-carboxylic Acid] | 106 | 0.398 | 8.4 | 132
Cc1cccc(Cl)c1-c1noc(C2CC2)c1CO[C@@H]1C[C@@H]2C[C@H]1CN2c1nc2c(O[C@H]3CCOC3)cc(C(=O)O)cc2s1 [Compound I-274, 2-((1S,4S,5R)-5-((3-(2-chloro-6-methylphenyl)-5-cyclopropylisoxazol-4-yl)methoxy)-2-azabicyclo[2.2.1]heptan-2-yl)-4-(((S)-tetrahydrofuran-3-yl)oxy)benzo[d]thiazole-6-carboxylic acid] | 100 | 0.631 | 8.8 | 150
Cc1cccc(Cl)c1-c1noc(C2CC2)c1CO[C@@H]1C[C@@H]2C[C@H]1CN2c1nc2c(O[C@@H]3CCOC3)cc(C(=O)O)cc2s1 [Compound I-275, 2-((1S,4S,5R)-5-((3-(2-chloro-6-methylphenyl)-5-cyclopropylisoxazol-4-yl)methoxy)-2-azabicyclo[2.2.1]heptan-2-yl)-4-(((R)-tetrahydrofuran-3-yl)oxy)benzo[d]thiazole-6-carboxylic acid] | 106 | 0.631 | 8.8 | 140
Cc1cccc(C)c1-c1noc(C2CC2)c1CO[C@@H]1C[C@@H]2C[C@H]1CN2c1nc2c(C)cc(C(=O)O)cc2s1 [Compound I-276, 2-[(1S,4S,5R)-5-{[5-cyclopropyl-3-(2,6-dimethylphenyl)-1,2-oxazol-4-yl]methoxy}-2-azabicyclo[2.2.1]heptan-2-yl]-4-methyl-1,3-benzothiazole-6-carboxylic Acid] | 114 | 3.98 | 8.2 | 124
O=C(O)c1cc(F)c2nc(N3C[C@@H]4C[C@H]3C[C@H]4OCc3c(C4CCC5(CC4)CC5)noc3C3CC3)sc2c1 [Compound I-277, 2-[(1S,4S,5R)-5-[(5-cyclopropyl-3-{spiro[2.5]octan-6-yl}-1,2-oxazol-4-yl)methoxy]-2-azabicyclo[2.2.1]heptan-2-yl]-4-fluoro-1,3-benzothiazole-6-carboxylic Acid] | 123 | 158 | 8.1 | 106
O=C(O)c1cc(OC2CC2)c2nc(N3C[C@@H]4C[C@H]3C[C@H]4OCc3c(C4CCC5(CC4)CC5)noc3C3CC3)sc2c1 [Compound I-278, 4-cyclopropoxy-2-((1S,4S,5R)-5-((5-cyclopropyl-3-(spiro[2.5]octan-6-yl)isoxazol-4-yl)methoxy)-2-azabicyclo[2.2.1]heptan-2-yl)benzo[d]thiazole-6-carboxylic acid] | 98 | 10 | 7.7 | 96
O=C(O)c1cc(C2CCOCC2)c2nc(N3C[C@@H]4C[C@H]3C[C@H]4OCc3c(C4CCC5(CC4)CC5)noc3C3CC3)sc2c1 [Compound I-279] | 104 | 39.8 | 7.2 | 112
O=C(O)c1cc([C@H]2CCOC2)c2nc(N3C[C@@H]4C[C@H]3C[C@H]4OCc3c(C4CCC5(CC4)CC5)noc3C3CC3)sc2c1 [Compound I-280, 2-((1S,4S,5R)-5-((5-cyclopropyl-3-(spiro[2.5]octan-6-yl)isoxazol-4-yl)methoxy)-2-azabicyclo[2.2.1]heptan-2-yl)-4-((R)-tetrahydrofuran-3-yl)benzo[d]thiazole-6-carboxylic acid] | 105 | 25.1 | 7.3 | 115
O=C(O)c1cc([C@@H]2CCOC2)c2nc(N3C[C@@H]4C[C@H]3C[C@H]4OCc3c(C4CCC5(CC4)CC5)noc3C3CC3)sc2c1 [Compound I-281, 2-((1S,4S,5R)-5-((5-cyclopropyl-3-(spiro[2.5]octan-6-yl)isoxazol-4-yl)methoxy)-2-azabicyclo[2.2.1]heptan-2-yl)-4-((S)-tetrahydrofuran-3-yl)benzo[d]thiazole-6-carboxylic acid] | 105 | 15.8 | 7.4 | 104
O=C(O)c1cc(C2CCC2)c2nc(N3C[C@@H]4C[C@H]3C[C@H]4OCc3c(C4CCC5(CC4)CC5)noc3C3CC3)sc2c1 [Compound I-282, 4-cyclobutyl-2-((1S,4S,5R)-5-((5-cyclopropyl-3-(spiro[2.5]octan-6-yl)isoxazol-4-yl)methoxy)-2-azabicyclo[2.2.1]heptan-2-yl)benzo[d]thiazole-6-carboxylic acid] | 117 | 25.1 | 7.4 | 100
O=C(O)c1cc(C2CCCC2)c2nc(N3C[C@@H]4C[C@H]3C[C@H]4OCc3c(C4CCC5(CC4)CC5)noc3C3CC3)sc2c1 [Compound I-283, 4-cyclopentyl-2-((1S,4S,5R)-5-((5-cyclopropyl-3-(spiro[2.5]octan-6-yl)isoxazol-4-yl)methoxy)-2-azabicyclo[2.2.1]heptan-2-yl)benzo[d]thiazole-6-carboxylic acid] | 104 | 25.1 | 7 | 114
O=C(O)c1cc(C2CCC2)c2nc(N3C[C@H]4C[C@@H]3C[C@@H]4OCc3c(-c4c(Cl)cccc4Cl)noc3C3CC3)sc2c1 [Compound I-284, 4-cyclobutyl-2-[(1R,4R,5S)-5-{[5-cyclopropyl-3-(2,6-dichlorophenyl)-1,2-oxazol-4-yl]methoxy}-2-azabicyclo[2.2.1]heptan-2-yl]-1,3-benzothiazole-6-carboxylic Acid] | 100 | 3.16 | 9 | 116
O=C(O)c1cc(C2CCCC2)c2nc(N3C[C@H]4C[C@@H]3C[C@@H]4OCc3c(-c4c(Cl)cccc4Cl)noc3C3CC3)sc2c1 [Compound I-285, 4-cyclopentyl-2-[(1R,4R,5S)-5-{[5-cyclopropyl-3-(2,6-dichlorophenyl)-1,2-oxazol-4-yl]methoxy}-2-azabicyclo[2.2.1]heptan-2-yl]-1,3-benzothiazole-6-carboxylic Acid] | 100 | 2.51 | 8.9 | 116
COc1cc(Cl)c(-c2noc(C3CC3)c2CO[C@@H]2C[C@@H]3C[C@H]2CN3c2nc3c(F)cc(C(=O)O)cc3s2)c(Cl)c1 [Compound I-286, 2-[(1S,4S,5R)-5-{[5-cyclopropyl-3-(2,6-dichloro-4-methoxyphenyl)-1,2-oxazol-4-yl]methoxy}-2-azabicyclo[2.2.1]heptan-2-yl]-4-fluoro-1,3-benzothiazole-6-carboxylic Acid] | 108 | 39.8 | 8.7 | 130
O=C(O)c1cc(F)c2nc(N3C[C@@H]4C[C@H]3C[C@H]4OCc3c(-c4c(Cl)cc(O)cc4Cl)noc3C3CC3)sc2c1 [Compound I-287, 2-[(1S,4S,5R)-5-{[5-cyclopropyl-3-(2,6-dichloro-4-hydroxyphenyl)-1,2-oxazol-4-yl]methoxy}-2-azabicyclo[2.2.1]heptan-2-yl]-4-fluoro-1,3-benzothiazole-6-carboxylic Acid] | 113 | 63.1 | 9.2 | 134
COc1ccccc1-c1noc(C2CC2)c1CO[C@@H]1C[C@@H]2C[C@H]1CN2c1nc2c(F)cc(C(=O)O)cc2s1 [Compound I-288, 2-((1S,4S,5R)-5-((5-cyclopropyl-3-(2-methoxyphenyl)isoxazol-4-yl)methoxy)-2-azabicyclo[2.2.1]heptan-2-yl)-4-fluorobenzo[d]thiazole-6-carboxylic acid] | 112 | 3.98 | 8 | 188
COc1cccc(-c2noc(C3CC3)c2CO[C@@H]2C[C@@H]3C[C@H]2CN3c2nc3c(F)cc(C(=O)O)cc3s2)c1 [Compound I-289, 2-((1S,4S,5R)-5-((5-cyclopropyl-3-(3-methoxyphenyl)isoxazol-4-yl)methoxy)-2-azabicyclo[2.2.1]heptan-2-yl)-4-fluorobenzo[d]thiazole-6-carboxylic acid] |  | < 31.6 | 6.9 | 70
COc1ccc(-c2noc(C3CC3)c2CO[C@@H]2C[C@@H]3C[C@H]2CN3c2nc3c(F)cc(C(=O)O)cc3s2)cc1 [Compound I-290, 2-((1S,4S,5R)-5-((5-cyclopropyl-3-(4-methoxyphenyl)isoxazol-4-yl)methoxy)-2-azabicyclo[2.2.1]heptan-2-yl)-4-fluorobenzo[d]thiazole-6-carboxylic acid] |  | < 31.6 | >4.5 | 
